Experimental data reported in patent publication US6121244A, “Antitumoral method by administration of partricin derivatives” (Prospa B.V., priority 1997, dated 2000).
Entries after “also recorded” stand apart in the source; their conditions may differ. Where two headings read alike, the source gives them in different places.

Tests used:
[1] = system: thyroid medullary carcinoma (TMC) cells; assay: Cytotoxicity test (MTT) of cisplatin after pre-treatment with SPA-S-843; assay type: cell-based
[2] = Water solubility; assay type: physicochemical; details: as salts, in particular diascorbate
[3] = system: carcino-embryonic antigen (CEA); assay: Carcino-embryonic antigen (CEA) in a patient under chemotherapy, CEA-RIA; assay type: in vivo, human (patient)
[4] = system: murine WEHI-3B (D+) myelomonocytic leukemia cells; assay: Cytotoxicity by MTT microtiter test; assay type: cell-based; details: for dose dependence of toxic effect: linear regression
Experimental: A) Microtiter test (MTT) (Pessina et al. "In vitro short-term and long-term cytotoxicity of fluoroquinones on murine cell line", Ind. J.
The cultures were incubated for 7 days at 37° C. in air+5% CO2 and finally 20 μl of MTT at a conc. of 5 mg/ml in PBS were added to each well. After 3-h incubation at 37° C. the cultures were destroyed with 100 μl of a lytic buffer prepared with sodium dodecylsulfate/dimethylforma-mide/acetic acid/HCl. After further overnight incubation, the optical density (OD) at 620 nm was determined with a microplate LP200 detector. The O.D. of the wells with no cells was considered as 0% proliferation. The O.D. of the wells with growing cells in drug-free medium was considered as 100% proliferation.

[5] = system: erythrocytes; details: cited from earlier work; for total hemolytic conc. (THC): erythrocytes
[6] = mice, i.v.; cited from earlier work
[7] = system: murine WEHI-3B (D+) myelomonocytic leukemia cells; details: clonogenic test; amphotericin B vs SPA-S-843; FIG. 4
Experimental: Substances: SPA-S-843 and amphotericin B were dissolved in sterile bidistilled water to a concentration of 2000 μg/ml. The working solutions were prepared in McCoy medium supplemented with penicillin+streptomycin (100 U/ml +100 μg/ml) at the concentrations of from 200 μg/ml to 1.56 μg/ml by subsequent serial 1:2 dilutions.
The murine WEHI-3B (D+) myelomonocytic leukemia cells were maintained through subcultures in 25-cm^2 plastic bottles in McCoy medium (Seromed, Germany) containing 5% FCS (Gibco, USA).
Cell sensitivity to the toxic action of SPA-S-843 in comparison with that of amphotericin B, taken as reference substance, was determined by two different methods:
Acta, 1013, 206-11, 1989).
The clonogenic capacity of WEHI-3B(D+) cells was tested by culturing 300 cells in 0.3 ml of complete enriched medium [McCoy +10% FCS, 10 mM sodium pyruvate, 4% NEAA (10×), 4% Mem Vit (100×)]+0.3% agar in 35 mm Petri plates.
SPA-S-843 and amphotericin B (100 μl) had previously been added to the Petri plates at serial concentrations of from 25 to 0.19 μg/ml. The control plates contained 100 μl of culture medium. The colonies were counted after 7 days of incubation at 37° C. in an atmosphere of air+5% CO2.

SMILES | potentiation of cisplatin cytotoxicity ([1]; incubation with SPA-S-843 (2 μg/ml)) | effect on resistance of TMC cells to cisplatin ([1]; pre-treatment with SPA-S-843 (2 μg/ml)) | water solubility [2] | CEA after phase B ([3]; SPA-S-843 50 mg i.v. combined with 5-fluorouracil (500 mg) and folinic acid (250 mg), 3 weeks later) | sensitivity to usual chemotherapeutic agents in combination with the polyene ([3]; combination with SPA-S-843, one patient) | cytotoxicity on WEHI-3B(D+) cells, compared with amphotericin B ([4]; 7 days, FIG. 1) | dose dependence of toxic effect ([4]; FIG. 1) | IC10 ([4]; vs amphotericin B, FIG. 2) | IC50 ([4]; vs amphotericin B, FIG. 2) | IC90 ([4]; vs amphotericin B, FIG. 2) | concentration at which lytic activity on erythrocytes appears ([5]; of the order of) | total hemolytic conc. (THC) [5] | LD50 [6] | IC10 [7] | IC50 [7] | IC90 [7]
CNc1ccc(C(=O)CC(O)CCC(C)C2OC(=O)CC(O)CC(=O)CC(O)CC(O)CC(O)CC(O)CC3(O)CC(O)C(C(=O)NCCN(C)C)C(CC(OC4OC(C)C(O)C(NC(=O)CN(C)C)C4O)C=CC=CC=CC=CC=CC=CC=CC2C)O3)cc1 (stereo not drawn) [SPA-S-843, N-dimethylamino-acetyl-partricin A 2-dimethylaminoethylamide] | able to potentiate cisplatin cytotoxicity against resistant cells up to the level of naturally sensitive cells; also recorded: cytotoxic for all TMC cells | substantially counteracted | water soluble | 65 ng/mL | re-established the sensitivity | substantially higher; also recorded: more sensitive to SPA-S-843 than to amphotericin B | dose-related kinetics | significantly lower | significantly lower | significantly lower | ≥ 18000 ng/mL | – | – | – | – | –
CNc1ccc(C(=O)CC(O)CCC(C)C2OC(=O)CC(O)CC(=O)CC(O)CC(O)CC(O)CC(O)CC3(O)CC(O)C(C(=O)NCCN(C)C)C(CC(OC4OC(C)C(O)C(NC(=O)CN(C)C)C4O)C=CC=CC=CC=CC=CC=CC=CC2C)O3)cc1 (stereo not drawn) [SPA-S-843 free base, N-dimethylamino-acetyl-partricin A 2-dimethylaminoethylamide] | – | – | – | – | – | – | – | – | – | – | – | > 18 µg/mL | – | – | – | –
C[C@@H]1[C@H](O)[C@@H](C)/C=C/C=C/C=C/C=C/C=C/C=C/C=C/[C@H](O[C@@H]2O[C@H](C)[C@@H](O)[C@H](N)[C@@H]2O)C[C@@H]2O[C@](O)(C[C@@H](O)C[C@@H](O)[C@H](O)CC[C@@H](O)C[C@@H](O)CC(=O)O[C@H]1C)C[C@H](O)[C@H]2C(=O)O [amphotericin B] | – | – | – | – | – | – | dose-related kinetics | – | – | – | – | 2 µg/mL | 4.77 mg/kg | significantly higher | significantly higher | significantly higher
